Common to all, as to assay type: physicochemical
A short description of series [1]: Storage stability of colored resist solution (precipitation after one month at room temperature). Conditions: negative-working colored resist solution, visual precipitation. Set-up: key: A: No precipitation was observed; B: Slight precipitation was observed; C: Precipitation was observed. The source says: 9.4 g of the resist solution obtained in section 1 above and 0.35 g of the exemplary compound Ia-12 synthesized above (a compound represented by Formula (4): dipyrromethene complex compound) were mixed and dissolved, whereby a colored resist solution (a negative-working ultraviolet-sensitive colored curable composition) was obtained.
The colored resist solution was stored for one month at room temperature, and then degree of precipitation was visually observed. The storage stability was evaluated according to the following criteria.
A: No precipitation was observed
B: Slight precipitation was observed
C: Precipitation was observed

Series [2] is described as follows: Absorption spectrum in ethyl acetate solution (spectrophotometer UV-2400PC). On the procedure: In consideration of film thickness, the molar absorption coefficient of the specific metal complex compounds-1, -2, -3 and -4 of the invention is preferably as high as possible, and 60,000 or higher is preferable. The maximum absorption wavelength (λmax) thereof is preferably from 520 nm to 580 nm, and more preferably from 530 nm to 570 nm, in order to improve color purity. The maximum absorption wavelength and the molar absorption coefficient are determined by using a spectrophotometer UV-2400PC (manufactured by Shimadzu Corporation).
The molar absorption coefficient (ε) of each of the obtained compounds was measured in an ethyl acetate solution using a spectrophotometer (trade name: UV-2400PC; manufactured by Shimadzu Corporation). The absorbance (Abs) at 450 nm was evaluated by normalizing the absorbance at a maximum absorption wavelength (λmax) to 1.0. […] The measurement results of the absorbance (Abs value), maximum absorption wavelength (λmax), and molar absorption coefficient (ε) are shown in Table 1.
By the method similar to the reaction scheme in Synthesis Example 1 above, the exemplary compounds (dipyrromethene metal complex compounds or tautomers thereof) shown in Table 1 were synthesized. The identification of the compounds and the measurement of the maximum absorption wavelength (λmax) and the molar absorption coefficient (ε) of the compounds were performed similarly to Synthesis Example 1 above.

A short description of series [3]: Heat resistance of coating film (color difference ΔEab before and after heating). Conditions: 100° C. for 1 hour on hot plate. Here is the method:
A glass substrate having undercoat layer formed by applying the colored resin composition obtained in section 3 above was heat-treated at 100° C. for 1 hour using a hot plate, and the color difference (ΔEab) between before and after the heating was determined by using a […] MCPD-1000 (trade name, manufactured by Otsuka Electronics Co., Ltd.). The heat resistance was evaluated according to the following criteria. A smaller AEab value indicates better heat resistance.
(§1) A: ΔEab value was less than 6
(§2) B: ΔEab value was from 6 to 10
(§3) C: ΔEab value was more than 10

Series [4] in a line: Light-fastness of coating film (color difference ΔEab before and after xenon lamp irradiation). The settings on record: xenon lamp 20,000 luxes for 10 hours (200,000 lux·h). On the procedure:
A glass substrate having undercoat layer formed by applying the colored resin composition obtained in section 3 above was irradiated with a xenon lamp at an intensity of 20,000 luxes for 10 hours (equivalent to 200,000 lux·h), and the color difference ΔEab between before and after the irradiation was determined. The light-fastness was evaluated according to the following criteria. A smaller ΔEab value indicates better light-fastness.
as §1, §2, §3

Series [5] in a line: Transmittance at 450 nm of the color filter. Conditions: negative-working colored resist, 1.0 μm film; transmittance at λmax normalized to 2%. Here is the method:
The colored resist solution obtained in section 3 above was applied to an undercoat layer side of the glass substrate having an undercoat layer obtained in section 2 above by a spin coater such that a film thickness was 1.0 μm. Subsequently, the film was pre-baked at 100° C. for 120 sec, whereby a monochromatic color filter was obtained.
The transmission spectrum of the color filter obtained above was measured, and the transmittance at 450 nm was evaluated according to the following criteria. The transmittance of the color filter at 450 nm was evaluated by correcting (normalizing) the transmittance at the maximum absorption wavelength of the colorant included in the color filter to 2%. A larger transmittance indicates greater transmission of blue light, which indicates favorable magenta or violet color that can be used in a blue filter.
A: Transmittance at 450 nm was 90% or more
B: Transmittance at 450 nm was 80% or more but not more than 90%
C: Transmittance at 450 nm was not more than 80%

The structures appear in SMILES notation.

With `CC1=C(C(=O)OC2C(C(C)(C)C)CC(C)CC2C(C)(C)C)C(NC(=O)c2cccc(C(F)(F)F)c2)=[N+]2C1=Cc1c(C)c(C(=O)OC3C(C(C)(C)C)CC(C)CC3C(C)(C)C)c(NC(=O)c3cccc(C(F)(F)F)c3)[n]1[Zn-]2[OH]` (stereo not shown) [IIa-6], the Storage stability result in series [1] is “A”. In series [2], the “maximum absorption wavelength (λmax)” value is 552 nm, the “molar absorption coefficient (ε)” value is given as 106,300 and the “Abs value at 450 nm when normalized to Abs = 1.0 at λmax” value (from here on “Abs value at 450 nm when normalized”) is 0.0127. The Heat resistance result in series [3] is recorded as “A (ΔEab value was less than 6)”. Also, in series [4], the Light-fastness result is “A (ΔEab value was less than 6)”. For the same compound, the “Transmittance at 450 nm” value in series [5] is “A (Transmittance at 450 nm was 90% or more)”.
Turning to `CC1=C(C(=O)OC2C(C(C)(C)C)CC(C)CC2C(C)(C)C)C(NC(=O)c2ccc(C(F)(F)F)cc2)=[N+]2C1=Cc1c(C)c(C(=O)OC3C(C(C)(C)C)CC(C)CC3C(C)(C)C)c(NC(=O)c3ccc(C(F)(F)F)cc3)[n]1[Zn-]2[OH]` (stereo not shown) [IIa-7], in series [1], the Storage stability entry is “A”. Also, in series [2], the “maximum absorption wavelength (λmax)” value is 554 nm, the “molar absorption coefficient (ε)” value is recorded as 111,800 and the “Abs value at 450 nm when normalized” value is listed as 0.0089. Further, the Heat resistance result in series [3] is reported as “A (ΔEab value was less than 6)”. Also, the Light-fastness result in series [4] was “A (ΔEab value was less than 6)”. Further, the “Transmittance at 450 nm” value in series [5] is listed as “A (Transmittance at 450 nm was 90% or more)”.
As for `CC1=C(C(=O)OC2C(C(C)(C)C)CC(C)CC2C(C)(C)C)C(NC(=O)c2ccc(F)c(F)c2)=[N+]2C1=Cc1c(C)c(C(=O)OC3C(C(C)(C)C)CC(C)CC3C(C)(C)C)c(NC(=O)c3ccc(F)c(F)c3)[n]1[Zn-]2[OH]` (stereo not shown) [IIa-13], the Storage stability result in series [1] was “A”. In addition, in series [2], the “maximum absorption wavelength (λmax)” value stood at 550 nm, the “molar absorption coefficient (ε)” value is 121,300 and the “Abs value at 450 nm when normalized” value was found to be 0.0084. Besides, the Heat resistance entry in series [3] was “A (ΔEab value was less than 6)”. In series [4], the Light-fastness result is listed as “A (ΔEab value was less than 6)”. The “Transmittance at 450 nm” value in series [5] is on record as “A (Transmittance at 450 nm was 90% or more)”.
Consider `CC1=C(C(=O)OC2C(C(C)(C)C)CC(C)CC2C(C)(C)C)C(NC(=O)c2cc(C(F)(F)F)cc(C(F)(F)F)c2)=[N+]2C1=Cc1c(C)c(C(=O)OC3C(C(C)(C)C)CC(C)CC3C(C)(C)C)c(NC(=O)c3cc(C(F)(F)F)cc(C(F)(F)F)c3)[n]1[Zn-]2[OH]` (stereo not shown) [IIa-14], for which, in series [1], the Storage stability entry was “A”. In addition, in series [2], the “maximum absorption wavelength (λmax)” value was found to be 551 nm, the “molar absorption coefficient (ε)” value was 100,100 and the “Abs value at 450 nm when normalized” value is given as 0.0114. In addition, the Heat resistance result in series [3] is given as “A (ΔEab value was less than 6)”. In addition, the Light-fastness entry in series [4] is reported as “A (ΔEab value was less than 6)”. The “Transmittance at 450 nm” value in series [5] is recorded as “A (Transmittance at 450 nm was 90% or more)”.
`CC1=C(C(=O)OC2C(C(C)(C)C)CC(C)CC2C(C)(C)C)C(NC(=O)c2ccc(C(F)(F)F)cc2F)=[N+]2C1=Cc1c(C)c(C(=O)OC3C(C(C)(C)C)CC(C)CC3C(C)(C)C)c(NC(=O)c3ccc(C(F)(F)F)cc3F)[n]1[Zn-]2[OH]` (stereo not shown) [IIa-15]: the Storage stability entry in series [1] is reported as “B”. In addition, in series [2], the “maximum absorption wavelength (λmax)” value is reported as 550 nm, the “molar absorption coefficient (ε)” value is given as 116,700 and the “Abs value at 450 nm when normalized” value was determined as 0.0095. For the same compound, the Heat resistance entry in series [3] is “A (ΔEab value was less than 6)”. In series [4], the Light-fastness entry is reported as “A (ΔEab value was less than 6)”. For the same compound, the “Transmittance at 450 nm” value in series [5] was “A (Transmittance at 450 nm was 90% or more)”.
Take `CC1=C(C(=O)OC2C(C(C)(C)C)CC(C)CC2C(C)(C)C)C(NC(=O)c2ccc(F)c([N+](=O)[O-])c2)=[N+]2C1=Cc1c(C)c(C(=O)OC3C(C(C)(C)C)CC(C)CC3C(C)(C)C)c(NC(=O)c3ccc(F)c([N+](=O)[O-])c3)[n]1[Zn-]2[OH]` (stereo not shown) [IIa-25]: in series [1], the Storage stability entry was “B”. Moreover, in series [2], the “maximum absorption wavelength (λmax)” value amounted to 555 nm, the “molar absorption coefficient (ε)” value is given as 126,900 and the “Abs value at 450 nm when normalized” value is 0.0081. Further, in series [3], the Heat resistance entry is “A (ΔEab value was less than 6)”. Moreover, in series [4], the Light-fastness result is on record as “A (ΔEab value was less than 6)”. The “Transmittance at 450 nm” value in series [5] is reported as “A (Transmittance at 450 nm was 90% or more)”.
`CC1=C(C(=O)OC2C(C(C)(C)C)CC(C)CC2C(C)(C)C)C(NC(=O)c2c(F)c(F)c(O)c(F)c2F)=[N+]2C1=Cc1c(C)c(C(=O)OC3C(C(C)(C)C)CC(C)CC3C(C)(C)C)c(NC(=O)c3c(F)c(F)c(O)c(F)c3F)[n]1[Zn-]2[OH]` (stereo not shown) [IIa-39]: the Storage stability entry in series [1] is “A”. Also, in series [2], the “maximum absorption wavelength (λmax)” value was found to be 553 nm, the “molar absorption coefficient (ε)” value is reported as 109,400 and the “Abs value at 450 nm when normalized” value is 0.0119. Also, in series [3], the Heat resistance result is on record as “A (ΔEab value was less than 6)”. Besides, the Light-fastness entry in series [4] is recorded as “A (ΔEab value was less than 6)”. In series [5], the “Transmittance at 450 nm” value is reported as “A (Transmittance at 450 nm was 90% or more)”.
Regarding `CC1CC(C(C)(C)C)C(OC(=O)C2=C(c3ccccc3)C3=Cc4c(-c5ccccc5)c(C(=O)OC5C(C(C)(C)C)CC(C)CC5C(C)(C)C)c(NC(=O)c5cccc(C(F)(F)F)c5)[n]4[Zn-]([OH])[N+]3=C2NC(=O)c2cccc(C(F)(F)F)c2)C(C(C)(C)C)C1` (stereo not shown) [IIb-6], the Storage stability result in series [1] was “A”. In series [2], the “maximum absorption wavelength (λmax)” value turned out to be 560 nm, the “molar absorption coefficient (ε)” value is 114,000 and the “Abs value at 450 nm when normalized” value stood at 0.0079. Further, the Heat resistance entry in series [3] is reported as “A (ΔEab value was less than 6)”. Further, the Light-fastness entry in series [4] is “A (ΔEab value was less than 6)”. Besides, in series [5], the “Transmittance at 450 nm” value is on record as “A (Transmittance at 450 nm was 90% or more)”.
Take `CC1CC(C(C)(C)C)C(OC(=O)C2=C(c3ccccc3)C3=Cc4c(-c5ccccc5)c(C(=O)OC5C(C(C)(C)C)CC(C)CC5C(C)(C)C)c(NC(=O)c5ccc(C(F)(F)F)cc5)[n]4[Zn-]([OH])[N+]3=C2NC(=O)c2ccc(C(F)(F)F)cc2)C(C(C)(C)C)C1` (stereo not shown) [IIb-7]: in series [1], the Storage stability result was “A”. Also, in series [2], the “maximum absorption wavelength (λmax)” value was determined as 563 nm, the “molar absorption coefficient (ε)” value is 97,100 and the “Abs value at 450 nm when normalized” value was determined as 0.0123. Further, the Heat resistance entry in series [3] is on record as “A (ΔEab value was less than 6)”. Moreover, the Light-fastness result in series [4] is “A (ΔEab value was less than 6)”. In addition, the “Transmittance at 450 nm” value in series [5] was “A (Transmittance at 450 nm was 90% or more)”.
In the case of `CC1CC(C(C)(C)C)C(OC(=O)C2=C(c3ccccc3)C3=Cc4c(-c5ccccc5)c(C(=O)OC5C(C(C)(C)C)CC(C)CC5C(C)(C)C)c(NC(=O)c5ccc(OC(F)(F)F)cc5)[n]4[Zn-]([OH])[N+]3=C2NC(=O)c2ccc(OC(F)(F)F)cc2)C(C(C)(C)C)C1` (stereo not shown) [IIb-8], the Storage stability entry in series [1] was “A”. Further, in series [2], the “maximum absorption wavelength (λmax)” value is 561 nm, the “molar absorption coefficient (ε)” value is reported as 92,600 and the “Abs value at 450 nm when normalized” value was 0.0135. In addition, in series [3], the Heat resistance entry is “A (ΔEab value was less than 6)”. For the same compound, in series [4], the Light-fastness result is listed as “A (ΔEab value was less than 6)”. For the same compound, in series [5], the “Transmittance at 450 nm” value is “A (Transmittance at 450 nm was 90% or more)”.

For the origin of these results see patent publication US8343696B2, “Colored curable composition, fluorine-containing dipyrromethene compound and tautomer thereof, and fluorine-containing dipyrromethene metal complex and tautomer thereof, and color filter using the same and method for producing the color filter” (FUJIFILM Corporation, priority 2008, dated 2013).
